Activity calls are given as the source filed them. The calls are words filed in the database; no cut-off is given here.
What was measured:
[1] = target: T1, Alpha-ketoglutarate-dependent dioxygenase alkB homolog 3 (Homo sapiens, UniProt Q96Q83); test: Inhibition of demethylase activity of PCA-1 (unknown origin) using 3-methyl cytosine oligo DNA as substrate after 1 hr by RT-PCR analysis
T1 sequence (Q96Q83 whole entry): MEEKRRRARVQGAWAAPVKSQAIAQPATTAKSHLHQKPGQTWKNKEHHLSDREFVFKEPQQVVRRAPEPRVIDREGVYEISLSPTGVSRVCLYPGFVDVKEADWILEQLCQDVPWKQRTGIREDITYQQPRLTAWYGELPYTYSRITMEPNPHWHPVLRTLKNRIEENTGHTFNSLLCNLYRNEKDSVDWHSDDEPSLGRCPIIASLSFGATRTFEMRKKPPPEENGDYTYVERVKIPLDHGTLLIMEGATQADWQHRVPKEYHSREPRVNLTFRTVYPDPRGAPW

[2] = system: Mus musculus; test: Toxicity in human DU145 cells xenografted mouse model assessed as abnormality in organs at 32 mg/kg, sc administered daily for 6 days; format: organism-based, DU-145; parameters: dose 32 mg/kg, route subcutaneous; conditions: in vivo, 144 h
[3] = system: Mus musculus; test: Toxicity in human DU145 cells xenografted mouse model assessed as abnormal behavior at 32 mg/kg, sc administered daily for 6 days; format: organism-based, DU-145; parameters: dose 32 mg/kg, route subcutaneous; conditions: in vivo, 144 h
[4] = system: DU-145; test: Antiproliferative activity against human DU145 cells at 1 uM after 7 days by 3-D agar-based WST-assay; format: functional; conditions: DU-145, 168 h
[5] = system: DU-145; test: Antiproliferative activity against human DU145 cells at 10 uM after 48 hrs by 2-D dish-based WST-assay; format: functional; conditions: DU-145, 48 h
[6] = system: DU-145; test: Antiproliferative activity against human DU145 cells at 10 uM after 7 days by 3-D agar-based WST-assay; format: functional; conditions: DU-145, 168 h
[7] = system: DU-145; test: Antiproliferative activity against human DU145 cells at 1 uM after 48 hrs by 2-D dish-based WST-assay; format: functional; conditions: DU-145, 48 h
[8] = target: T2, Alpha-ketoglutarate-dependent dioxygenase alkB homolog 3 (Homo sapiens) (UniProt Q96Q83); test: Inhibition of demethylase activity of PCA-1 (unknown origin) using 3-methyl cytosine oligo DNA as […] after 1 hr by RT-PCR analysis
T2 sequence (whole entry): T1 sequence (Q96Q83 whole entry)

[9] = system: DU-145; test: Anticancer activity against human DU145 cells xenografted in mouse assessed as tumor growth inhibition at 32 mg/kg, sc administered daily for 6 days; format: functional, organism-based; parameters: dose 32 mg/kg
[10] = Drug level in Sprague-Dawley rat serum at 32 mg/kg, po after 1 hr; format: ADME, organism-based; parameters: dose 32 mg/kg, route oral
[11] = target: T2, Alpha-ketoglutarate-dependent dioxygenase alkB homolog 3 (Homo sapiens); conditions: 10 uM
Description: Inhibition of PCA-1 (unknown origin) at 10 uM

[12] = Oral bioavailability in Sprague-Dawley rat at 32 mg/kg; format: ADME, organism-based; conditions: in vivo
[13] = Initial plasma concentration in Sprague-Dawley rat serum at 0.5 mg/kg, iv; format: ADME, organism-based; parameters: dose 0.5 mg/kg, route intravenous
[14] = AUC (0 to 24 hrs) in Sprague-Dawley rat serum at 0.5 mg/kg, iv; format: ADME, organism-based; parameters: time < 24 hr, dose 0.5 mg/kg, route intravenous
[15] = AUC (0 to 24 hrs) in Sprague-Dawley rat serum at 32 mg/kg, po; format: ADME, organism-based; parameters: time < 24 hr, dose 32 mg/kg, route oral
[16] = Cmax in Sprague-Dawley rat serum at 32 mg/kg, po; format: ADME, organism-based; parameters: dose 32 mg/kg, route oral
[17] = system: Mus musculus; test: Toxicity in human DU145 cells xenografted mouse model assessed as body weight at 32 mg/kg, sc administered daily for 6 days; format: organism-based, DU-145; parameters: dose 32 mg/kg, route subcutaneous; conditions: in vivo, 144 h

SMILES | IC50 [1] | further results
Cc1nn(-c2nc3ccccc3[nH]2)c(O)c1Cc1ccccc1 | 0.48 µM | inhibition at 1 µM [4]: 42%; inhibition at 10 µM [5]: 47%; inhibition at 10 µM [6]: 90%; inhibition at 1 µM [7]: 42%
Cc1[nH]n(-c2nc3ccccc3n2C)c(=O)c1C | > 10 µM | inhibition [8]: 21%
Oc1c(-c2ccccc2)c(-c2ccccc2)nn1-c1nc2cc(Cl)ccc2[nH]1 | 2 µM | –
Cc1ccc2[nH]c(-n3[nH]c(-c4ccccc4)c(C)c3=O)nc2c1 | 3.3 µM | –
Cc1ccc2[nH]c(-n3[nH]c(C)c(Cc4ccc(C(C)(C)C)cc4)c3=O)nc2c1 | 3.7 µM | –
Cc1ccc2[nH]c(-n3[nH]c(C)c(Cc4ccccc4)c3=O)nc2c1 | – | TGI [9]: Active; inhibition at 1 µM [4]: 34%; inhibition at 10 µM [5]: 54%; inhibition at 10 µM [6]: 81%; inhibition at 1 µM [7]: 35%
O=c1cc(-c2ccccc2)[nH]n1-c1nc2ccccc2[nH]1 | 7.2 µM | –
Cc1ccc2[nH]c(-n3[nH]c(C)c(C)c3=O)nc2c1 | 2.6 µM | inhibition at 1 µM [4]: 3.8%; inhibition at 10 µM [5]: 19%; inhibition at 10 µM [6]: 69%; inhibition at 1 µM [7]: -11%; concentration at 1 h [10]: 1080 ng/mL
Cc1ccc(-c2ccc3[nH]c(-n4[nH]c(C)c(Cc5ccccc5)c4=O)nc3c2)cc1 | 2.1 µM | –
Cc1ccc2nc(-n3[nH]c(C)c(Cc4ccc(C(F)(F)F)cc4)c3=O)[nH]c2c1 | 0.57 µM | –
Cc1[nH]n(-c2nc3c(C)cccc3[nH]2)c(=O)c1C | > 10 µM | –
COc1ccc(Cc2c(C)[nH]n(-c3nc4ccc(C)cc4[nH]3)c2=O)cc1 | 0.68 µM | –
Cc1[nH]n(-c2ccccn2)c(=O)c1C(=O)Nc1ccccc1 | 1.7 µM | inhibition at 10 µM [5]: 25%
Cc1[nH]n(-c2nc3ccccc3s2)c(=O)c1C | > 10 µM | inhibition [8]: -3%
Cc1ccc2nc(-n3[nH]c(C)c(Cc4ccc(-c5ccccc5)cc4)c3=O)[nH]c2c1 | 5.3 µM | –
Cc1ccc2[nH]c(-n3nc(-c4ccccc4)c(-c4ccccc4)c3O)nc2c1 | 5.8 µM | –
Cc1[nH]n(-c2ccccc2)c(=O)c1C | > 10 µM | inhibition [8]: 20%
Cc1ccc2[nH]c(-n3[nH]c(C)c(Cc4ccc(F)cc4)c3=O)nc2c1 | 0.78 µM | –
Cc1[nH]n(-c2ncccn2)c(=O)c1C | > 10 µM | inhibition [8]: -4%
Cc1[nH]n(-c2nc3ccccc3o2)c(=O)c1C | > 10 µM | inhibition [8]: 0%
Cc1[nH]n(-c2ccccn2)c(=O)c1C | > 10 µM | inhibition [8]: -4%
Cc1cc(O)n(-c2nc3ccccc3[nH]2)n1 | 3.6 µM | –

The next lines start with results.

IC50 [1] | SMILES | further results
0.63 µM | COc1ccc(Cc2c(C)[nH]n(-c3nc4ccccc4[nH]3)c2=O)cc1 | Activity [2]: Non-toxic; Activity [3]: Non-toxic
> 10 µM | Cc1ccc2nc(-n3[nH]c(C)c(Cc4ccccc4)c3=O)[nH]c2c1C | –
15 µM | Cc1[nH]n(-c2nc3ccccc3[nH]2)c(=O)c1CC(=O)O | –
4.1 µM | Cc1[nH]n(-c2nc3ccccc3[nH]2)c(=O)c1Cc1ccc(C(C)(C)C)cc1 | –
> 10 µM | Cc1c(-c2ccccc2)[nH]n(-c2nc3ccccc3[nH]2)c1=O | –
0.72 µM | Cc1ccc2[nH]c(-n3[nH]c(C)c(Cc4ccc(Cl)c(Cl)c4)c3=O)nc2c1 | –
4.5 µM | Cc1[nH]n(-c2nc3cc(Cl)ccc3[nH]2)c(=O)c1Cc1ccccc1 | inhibition at 1 µM [4]: 84%; inhibition at 10 µM [6]: 87%; inhibition at 1 µM [7]: 86%
0.91 µM | Cc1ccc2[nH]c(-n3[nH]c(C)c(Cc4ccccc4Cl)c3=O)nc2c1 | –
4 µM | Cc1[nH]n(-c2nc3ccccc3[nH]2)c(=O)c1C | inhibition [11]: 76%; inhibition at 10 µM [5]: 0.8%
0.54 µM | Cc1[nH]n(-c2nc3ccccc3[nH]2)c(=O)c1Cc1cccc(Cl)c1 | –
4.3 µM | COC(=O)Cc1c(C)[nH]n(-c2nc3ccccc3[nH]2)c1=O | –
0.67 µM | Cc1ccc2nc(-n3[nH]c(C)c(Cc4ccccc4)c3=O)[nH]c2c1 | bioavailability [12]: 7.2%; C0 [13]: 430 ng/mL; AUC(0-t) at 24 h [14]: 150 ng·h/mL; AUC(0-t) at 24 h [15]: 690 ng·h/mL; Cmax [16]: 350 ng/mL; Activity [17]: Non-toxic
0.61 µM | Cc1[nH]n(-c2nc3cc(C(F)(F)F)ccc3[nH]2)c(=O)c1Cc1ccccc1 | inhibition at 1 µM [4]: 90%; inhibition at 10 µM [5]: 84%; inhibition at 10 µM [6]: 92%; inhibition at 1 µM [7]: 78%
0.81 µM | Cc1[nH]n(-c2nc3cc(-c4ccccc4)ccc3[nH]2)c(=O)c1Cc1ccccc1 | –
0.75 µM | Cc1[nH]n(-c2nc3ccccc3[nH]2)c(=O)c1Cc1ccc2ccccc2c1 | –
0.72 µM | Cc1[nH]n(-c2nc3ccccc3[nH]2)c(=O)c1Cc1ccc(-c2ccccc2)cc1 | –
> 10 µM | O=c1c(Cc2ccccc2)c(-c2ccccc2)[nH]n1-c1nc2ccccc2[nH]1 | inhibition [8]: 2%
0.55 µM | Cc1[nH]n(-c2nc3ccccc3[nH]2)c(=O)c1Cc1ccc(C(F)(F)F)cc1 | –
3.1 µM | Cc1[nH]n(-c2nc3ccccc3[nH]2)c(=O)c1Cc1ccc(Cl)c(Cl)c1 | –
> 10 µM | Cc1[nH]n(-c2nc3ccccc3[nH]2)c(=O)c1Cc1ccc(Cl)cc1 | inhibition [8]: 46%
0.75 µM | Cc1ccc2[nH]c(-n3[nH]c(C)c(Cc4ccc(Cl)cc4)c3=O)nc2c1 | inhibition at 1 µM [4]: 2.8%; inhibition at 10 µM [5]: 46%; inhibition at 10 µM [6]: 90%; inhibition at 1 µM [7]: -1%
0.6 µM | Cc1[nH]n(-c2nc3ccccc3[nH]2)c(=O)c1Cc1ccc(F)cc1 | –
1.5 µM | Cc1[nH]n(-c2nc3cc(-c4ccc(Cl)cc4)ccc3[nH]2)c(=O)c1Cc1ccccc1 | inhibition at 1 µM [4]: 91%; inhibition at 10 µM [5]: 63%; inhibition at 10 µM [6]: 100%; inhibition at 1 µM [7]: 70%
> 10 µM | Cc1[nH]n(-c2nc3ccccc3[nH]2)c(=O)c1Cc1ccccc1Cl | –
5.9 µM | Cc1[nH]n(-c2nc3c(C)cccc3[nH]2)c(=O)c1Cc1ccccc1 | –
0.64 µM | Cc1[nH]n(-c2nc3ccc(C(C)(C)C)cc3[nH]2)c(=O)c1Cc1ccccc1 | –
0.49 µM | Cc1[nH]n(-c2nc3cc(Br)ccc3[nH]2)c(=O)c1Cc1ccccc1 | –
> 10 µM | Cc1[nH]n(-c2nc3ccccc3[nH]2)c(=O)c1Cc1ccc(Cl)cc1Cl | inhibition [8]: 11%

Source: ChEMBL document CHEMBL3112445, “Design and synthesis of prostate cancer antigen-1 (PCA-1/ALKBH3) inhibitors as anti-prostate cancer drugs” (Bioorg Med Chem Lett, 2014)
